Values joined by “and” are separate entries in the source; they are usually repeats but may differ in a detail not shown here. Equal values may be shown once. Read-outs that look alike come from different tables or passages of the source.
How the values were obtained:
SW48 cells = assay: SW48 cell viability assay (CellTiter-Glo); format: cell-based; settings: Homo sapiens
Protocol: The inhibitor compound 1 (Cpd-1) (IUPAC name ethyl 9-(3-(2-propylphenyl)-1-(1-phenylethyl)ureido)-2-methoxy-4-oxo-6,7,8,9-tetrahydro-4H-pyrido[1,2-a]pyrimidine-3-carboxylate) was identified as a hit in a high throughput screening campaign of a diverse set of 244,625 compounds in a human TDO2 cellular assay utilizing SW48 cells, which express a high level of endogenous TDO2. TDO2 activity was assessed by measuring the accumulation of the TDO2 product NFK and downstream product KYN in the supernatant. The potent inhibitor compound 2 (Cpd-2) (IUPAC name ethyl 9-(3-(2-isopropylphenyl)-1-((S)-1-phenylethyl)ureido)-2-methoxy-4-oxo-6,7,8,9-tetrahydro-4H-pyrido[1,2-a]pyrimidine-3-carboxylate) was identified during initial structure activity relationship studies of Cpd-1 analogs.
As inhibition of NFK and KYN production can simply be an effect of cytotoxicity, a viability assay (CellTiter-Glo 2.0 Luminescent Cell Viability Assay, Promega Catalog # G9243) was performed in parallel. CellTiter-Glo reagent was added (25 µl/well) to SW48 cell plates, incubated for 15 min at room temperature in the dark and luminescence was measured with the EnVision Multilabel Reader from Perkin Elmer according to the manufacturer’s instructions. […] For each compound concentration the percentage of activity compared to 0% and 100% effect was calculated as average ± STDEV (each concentration measured in duplicate). […]

apo-TDO2 = molecular target: T1, apo-TDO2 (Homo sapiens, UniProt P48775); assay: Differential scanning fluorimetry (thermal shift) of apo-TDO2; format: binding; settings: for Δ Tm Boltzmann / Δ Tm Derivative: 25 µM; for Δ Tm Boltzmann / Δ Tm Derivative / Tm Boltzmann / Tm Derivative: in °C
T1 construct: a longer construct (His6-aa19-406, with aa406 corresponding to the wild type C-terminal residue), which was used for DSF and other experiments; made in house; host or cells: E. coli RP523 (hemB mutant, unable to synthesize heme)
Protocol: […] S5 online).
Protein thermal stability and small molecule ligand binding of TDO2 in vitro was studied using differential scanning fluorimetry (DSF, also known as thermal shift assay)[34]. Assay ingredients and ligands were combined to obtain a mixture composed of 10 µM TDO2 and 10x SYPRO Orange, in assay buffer (50 mM HEPES-NaOH pH 8.0, 200 mM NaCl, 2 mM TCEP, 10% glycerol) and 2% final DMSO concentration. Small molecule chemical ligands were taken from DMSO stock solution (100 mM, 10 mM) and diluted in DMSO transferred to wells of PCR Plates (Micro Amp Fast 96-well Reaction Plates, Applied Biosystems) to ensure matching final DMSO concentrations.
DSF was carried out with a StepOnePlus™ real time PCR system. Thermal denaturation of TDO2 was monitored with a ramp rate of 1 K/min. Protein melting curves were evaluated using the Thermal Shift Software v 1.3. (Thermo Fisher Scientific) to derive differences in midpoint melting-temperatures (derivative model). The thermal shift (DTm) is documented as the difference between the reference midpoint melting temperature of proteins (containing 500 µM AMT) in the presence of the ligand vehicle (DMSO) and in the presence of ligand.
Supplementary Table S2. Differential scanning fluorimetry data corresponding to supplementary figure S4. The experiments were carried out in quadruplicate, or in triplicate where single outlier values (highlighted in bold italics) were excluded from calculation of the melting curves. AMT was added at a concentration of 500 µM; […] and […] were added at a concentration of 25 µM.

IDO1 = molecular target: T2, IDO1 (Homo sapiens, UniProt P14902); assay: IDO1 cellular activity assay (IFNγ-stimulated SKOV3 cells); format: cell-based; settings: IFNγ 50 ng/ml, 24 h
T2 construct: SKOV3 cells treated with IFNγ to induce IDO expression; endogenous in cells; host or cells: SKOV3 cells (NCI No. 0503405), IFNγ-stimulated
Protocol: A cellular assay similar to the TDO2 assay was used to measure IDO1 inhibition in SKOV3 cells.
SKOV3 cells (source: National Cancer Institute (NCI), No. 0503405) which upregulate IDO1 after stimulation with IFNγ were used to measure compounds for IDO1 inhibitory activity. SKOV3 cells were routinely maintained in RPMI 90% (v/v), FCS 10% (v/v), Penicilin/streptomycin 1% (v/v). SKOV3 cells were seeded in 384 well plates at a density of 8000 cells in 45 µl per well or 4000 cells in 45 µl per well, respectively. Plates were incubated at 37 °C / 5% CO2 for 24 h. On the next day, 10 µl compound in serial dilutions (tested concentration range 10 µM-0.5 nM) and 200 µM L-tryptophan were added as well as IFNγ at a final concentration of 50 ng/ml. After 24 h of incubation at 37 °C / 5% CO2, 3 µl of the supernatant per well was transferred to 25 µl H2O per well in a 384 deep well plate and 25 µl of the supernatant per well was transferred to waste. The SKOV3 cell plates with 25 µl supernatant per well remaining were used to measure viability (see below). […] NFK and kynurenine (KYN) were quantified by LCMS, normalized to the internal standard L-tryptophan-(indole-d5) and the sum was calculated. […] For each compound concentration the percentage of activity compared to 0% and 100% effect was calculated as average ± STDEV (each concentration measured in duplicate). […]

[1] = 25 µM compound with 500 µM AMT, compared to 59.2 °C in the absence of inhibitor, read-out: increase of the melting temperature of apo-TDO2
[2] = apo-TDO2 + 25 µM compound, no AMT, shift vs apo, single replicates
[3] = apo-TDO2 + 25 µM compound, no AMT, shift vs apo, single replicates, read-out: Δ Tm Boltzmann
[4] = apo-TDO2 + 25 µM compound, no AMT, shift vs apo, single replicates, read-out: Δ Tm Derivative
[5] = apo-TDO2 + 25 µM compound, no AMT, single replicates

T1 sequence (P48775 19-406): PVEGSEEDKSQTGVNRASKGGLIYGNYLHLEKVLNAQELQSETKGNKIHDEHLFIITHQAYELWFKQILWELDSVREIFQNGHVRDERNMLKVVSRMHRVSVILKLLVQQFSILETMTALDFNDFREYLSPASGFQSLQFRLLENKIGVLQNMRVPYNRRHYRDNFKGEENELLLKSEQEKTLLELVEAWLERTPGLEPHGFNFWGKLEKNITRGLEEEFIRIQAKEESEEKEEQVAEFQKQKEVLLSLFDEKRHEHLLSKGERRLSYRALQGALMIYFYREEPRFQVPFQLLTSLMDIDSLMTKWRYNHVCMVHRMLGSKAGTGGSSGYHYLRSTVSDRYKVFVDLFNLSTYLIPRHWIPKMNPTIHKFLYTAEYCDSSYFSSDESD
T2 sequence (P14902 whole entry): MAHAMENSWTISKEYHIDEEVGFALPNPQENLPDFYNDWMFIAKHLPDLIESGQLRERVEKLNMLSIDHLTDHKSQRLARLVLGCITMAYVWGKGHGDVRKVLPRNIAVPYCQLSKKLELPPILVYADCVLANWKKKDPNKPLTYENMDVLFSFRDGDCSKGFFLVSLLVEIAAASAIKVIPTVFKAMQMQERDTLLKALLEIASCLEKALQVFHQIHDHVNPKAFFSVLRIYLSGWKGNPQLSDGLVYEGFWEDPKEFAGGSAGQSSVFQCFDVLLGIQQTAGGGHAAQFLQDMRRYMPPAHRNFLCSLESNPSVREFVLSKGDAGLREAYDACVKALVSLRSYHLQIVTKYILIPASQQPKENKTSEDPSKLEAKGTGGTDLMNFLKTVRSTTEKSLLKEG

Row | IC50 (SW48 cells) | ΔTm at 25 µM (apo-TDO2; [1]) | Δ Tm Boltzmann (apo-TDO2; [2]) | Δ Tm Derivative (apo-TDO2; [2]) | ΔTm at 25 µM (apo-TDO2; [3]) | ΔTm at 25 µM (apo-TDO2; [4]) | Tm Boltzmann (apo-TDO2; [5]) | Tm Derivative (apo-TDO2; [5]) | IC50 (IDO1) | Structure (SMILES)
1 | > 10 µM | 14.5 °C | 21.65 and 21.58 and 21.17 | 21.51 and 21.53 and 21.2 | 21.4 °C | 21.5 °C | 70.45 | 70.37 and 70.39 and 70.41 and 70.08 | > 10 µM | CCOC(=O)c1c(OC)nc2n(c1=O)CCCC2N(C(=O)Nc1ccccc1C(C)C)[C@@H](C)c1ccccc1 (mixture of isomers) [Cpd-2, ethyl 9-(3-(2-isopropylphenyl)-1-((S)-1-phenylethyl)ureido)-2-methoxy-4-oxo-6,7,8,9-tetrahydro-4H-pyrido[1,2-a]pyrimidine-3-carboxylate]
2 | > 10 µM | 11.2 °C | 11.41 and 11.37 and 11.43 | 7.28 and 6.95 and 6.97 | 10.3 °C | 6.57 °C | 59.1 and 60.21 and 60.17 and 60.23 | 55.45 and 56.16 and 55.84 and 55.85 | 5.7 µM | CCCc1ccccc1NC(=O)N(C(C)c1ccccc1)C1CCCn2c1nc(OC)c(C(=O)OCC)c2=O (stereo not drawn) [Cpd-1, ethyl 9-(3-(2-propylphenyl)-1-(1-phenylethyl)ureido)-2-methoxy-4-oxo-6,7,8,9-tetrahydro-4H-pyrido[1,2-a]pyrimidine-3-carboxylate]

From paper PMC11561238, “Discovery and binding mode of small molecule inhibitors of the apo form of human TDO2” (Scientific Reports, 2024)
